Reference: patent US20070219155A1, “TREATING TRINUCLEOTIDE REPEAT CONDITIONS” (priority 2006, published 2007)

Tests used:
[1] = tested on: human HD fibroblasts; assay: Comet assay of H2O2-treated cells; conditions: cultured cells; FIG. 2F
[2] = tested on: human HD fibroblasts
Experimental: Human HD fibroblasts (Coriell Cell Repositories) were maintained in MEM medium with 20% FBS. Cells were grown until they reached 70% confluence and then treated with the indicated concentrations of H2O2 for 30 min. The cells were washed, the medium was replaced, and the cells were allowed to recover for three days before repeating the treatment one or two more times. After the third treatment, the cells were collected and DNA was isolated. CAG repeat sizing was performed as described below.

[3] = tested on: lymphoblast cell lines obtained from HD patients; conditions: FIG. 2D
Experimental: DNA was purified from mouse tissues or cultured human fibroblasts (Kovtun et al., Hum. Mol. Genet., 13:3057-3068 (2004)) and used for PCR amplification of various microsatellites. CAG repeats at the hHD locus were amplified as described previously (Kovtun and McMurray, Nat. Genet., 27:407-411 (2001); Kovtun et al., Hum. Mol. Genet., 13:3057-3068 (2004)). […] One primer in each PCR amplification was labeled with FAM-6, and fluorescent products were analyzed using an ABI prism 3700 DNA analyzer instrument and the GeneMapper software v3 (Applied Biosystems).
It was then determined whether peroxide treatment could directly lead to CAG expansion at the hHD locus in human HD fibroblasts in response to oxidative damage.

OO [H2O2, hydrogen peroxide]
single strand breaks (comet assay) [1]: dose-dependent increase in single strand breaks | cell viability [2]: did not affect cell viability | expansion of CAG repeats at the hHD locus ([2]; low (sub-lethal) doses, 30 min treatment repeated up to three times, FIG. 2C): uniformly led to expansion of CAG at intermediate or disease-length alleles | expansion of GAA repeats (chromosome 5 locus) ([2]; same peroxide-treated cells, FIG. 2E): expansion was not detected | expansion of CAG repeats at the hHD locus [3]: expansions were observed
